Our source for the TGI values is PubChem BioAssay (NCI).

Among the test systems are A498 renal; ACHN renal; CCRF-CEM leukemia; DU-145 prostate; EKVX NSCLC; HCT-15 colon; MALME-3M melanoma; MCF7 breast; MDA-MB-231 breast; NCI-H23 lung; OVCAR-3 ovarian; OVCAR-4 ovarian; SF-268 CNS; SF-295 CNS; SF-539 CNS; SK-MEL-2 melanoma; SW-620 colon; T-47D breast; U251 CNS; UACC-62 melanoma.
Common to all, as to assay: inhibition of tumour cell growth, NCI panel, 48 h

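1) Cells in 96-well plates. 2) Compound, 48 h, 5 concentrations. 3) Linear interpolation between surrounding doses. 4) Unreached endpoint = highest concentration. Definition used: TGI = concentration required for complete inhibition of growth.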 A value given as a limit tells only on which side of the number the result lay.

Take `COc1ccc(C2=C(N)c3c(Cl)cccc3C2=O)cc1`: the TGI with A498 renal, in the assay with ACHN renal, with CCRF-CEM leukemia, in the assay with DU-145 prostate, in the assay with EKVX NSCLC and with HCT-15 colon was > 100 µM each time. The TGI in the assay with MALME-3M melanoma, in the assay on MCF7 breast, with MDA-MB-231 breast, in the assay with NCI-H23 lung, in the assay with OVCAR-3 ovarian and in the assay with OVCAR-4 ovarian was > 100 µM each time. The TGI in the assay with SF-268 CNS, with SF-295 CNS, in the assay with SF-539 CNS, in the assay on SK-MEL-2 melanoma, in the assay on SW-620 colon and with T-47D breast was > 100 µM each time. Moreover, the TGI in the assay with U251 CNS and in the assay on UACC-62 melanoma was > 100 µM in each case.
In the case of `O=C(/C=C/c1ccc(C(F)(F)F)cc1)c1c([O-])on[n+]1-c1ccccc1`, the TGI in the assay on A498 renal is 14.8 µM; with ACHN renal, 2.94 µM; in the assay on CCRF-CEM leukemia, 0.188 µM; in the assay with DU-145 prostate, 7.17 µM; in the assay on EKVX NSCLC, 5.83 µM; with HCT-15 colon, 3.12 µM. Further, the TGI with MALME-3M melanoma is > 100 µM; with MCF7 breast, > 34.5 µM; with MDA-MB-231 breast, 20 µM; in the assay with NCI-H23 lung it was 10 µM; with OVCAR-3 ovarian, 3.37 µM; in the assay with OVCAR-4 ovarian, 48.9 µM. The TGI was > 26.2 µM with SF-268 CNS; 20.2 µM in the assay with SF-295 CNS; 3.98 µM in the assay on SF-539 CNS; 9.64 µM in the assay on SK-MEL-2 melanoma; 3.82 µM with T-47D breast; 2.81 µM with UACC-62 melanoma.
Take `O=C1/C(=C/c2ccco2)N=C2Sc3c(nc[nH]c3=O)N12`: the TGI in the assay with A498 renal, in the assay with ACHN renal, in the assay on CCRF-CEM leukemia, in the assay with DU-145 prostate, in the assay with EKVX NSCLC and in the assay with HCT-15 colon was > 100 µM in each case. For the same compound, the TGI with MALME-3M melanoma, in the assay with MCF7 breast, in the assay on MDA-MB-231 breast, in the assay on NCI-H23 lung, in the assay on OVCAR-3 ovarian and in the assay on OVCAR-4 ovarian was > 100 µM throughout. Further, the TGI in the assay with SF-268 CNS, with SF-295 CNS, in the assay on SF-539 CNS, with SK-MEL-2 melanoma, in the assay with SW-620 colon and in the assay with T-47D breast was > 100 µM each time. In addition, the TGI with U251 CNS is > 100 µM.
As for `[N-]=[N+]=Nc1c(Cl)c(Cl)nc2ccccc12`, the TGI with A498 renal, with ACHN renal, in the assay with CCRF-CEM leukemia, with DU-145 prostate, in the assay on EKVX NSCLC and in the assay with HCT-15 colon was > 100 µM throughout. The TGI in the assay with MALME-3M melanoma, in the assay on MCF7 breast, in the assay on MDA-MB-231 breast, in the assay on NCI-H23 lung, in the assay on OVCAR-3 ovarian and in the assay on OVCAR-4 ovarian was > 100 µM in each case. The TGI in the assay on SF-268 CNS, with SF-295 CNS, in the assay with SF-539 CNS, with SK-MEL-2 melanoma, in the assay on SW-620 colon and in the assay with T-47D breast was > 100 µM in each case. Besides, in the assay on UACC-62 melanoma, the TGI was > 100 µM.
Regarding `C=CCN1C[C@H](C)N([C@@H](c2ccc(C(=O)N3CCCCC3)cc2)c2cccc(OC)c2)C[C@H]1C`, the TGI with A498 renal is > 100 µM; in the assay with ACHN renal, > 100 µM; in the assay on CCRF-CEM leukemia it was 70.4 µM; in the assay on DU-145 prostate, > 100 µM; in the assay on EKVX NSCLC, > 100 µM; with HCT-15 colon, > 100 µM. For the same compound, the TGI is 40.7 µM with MALME-3M melanoma; > 100 µM in the assay on MCF7 breast; > 100 µM in the assay on MDA-MB-231 breast; > 100 µM in the assay on NCI-H23 lung; > 100 µM in the assay on OVCAR-3 ovarian; > 100 µM in the assay on OVCAR-4 ovarian. Besides, the TGI was > 100 µM with SF-268 CNS; > 100 µM with SF-295 CNS; 67.7 µM with SF-539 CNS; 60.3 µM in the assay on SK-MEL-2 melanoma; 76 µM in the assay with T-47D breast; > 100 µM in the assay on U251 CNS. The compound further returned a TGI with UACC-62 melanoma of 64.8 µM.
As to `COC(=O)c1ccccc1NC(=NC1CCCCCC1)NS(=O)(=O)c1ccc(C)cc1`, the TGI in the assay with A498 renal, with ACHN renal, in the assay on CCRF-CEM leukemia, with DU-145 prostate, in the assay with EKVX NSCLC and with HCT-15 colon was > 100 µM each time. For the same compound, the TGI in the assay with MCF7 breast, in the assay with MDA-MB-231 breast, in the assay with NCI-H23 lung, with OVCAR-3 ovarian, with OVCAR-4 ovarian and in the assay on SF-268 CNS was > 100 µM in each case. Also, the TGI with SF-295 CNS, with SF-539 CNS, in the assay with SK-MEL-2 melanoma, in the assay on SW-620 colon, with T-47D breast and in the assay with U251 CNS was > 100 µM each time. Further, the TGI with UACC-62 melanoma is > 100 µM.
On to `O=C(O)c1nc2ccc(C(F)(F)F)cc2nc1NCc1ccc(Cl)c(Cl)c1`, for which the TGI in the assay with A498 renal is 34.6 µM; in the assay with ACHN renal, 30.5 µM; in the assay with CCRF-CEM leukemia it was > 100 µM; with DU-145 prostate, 32.5 µM; with EKVX NSCLC it was 30.4 µM; in the assay with HCT-15 colon, 36.5 µM. Moreover, the TGI turned out to be 45.3 µM in the assay on MCF7 breast; 34.5 µM in the assay with MDA-MB-231 breast; 32.4 µM in the assay with NCI-H23 lung; 24.6 µM with OVCAR-3 ovarian; 51.4 µM in the assay with OVCAR-4 ovarian; 37.2 µM in the assay with SF-295 CNS. Further, the TGI in the assay with SF-539 CNS came out at 36.6 µM; in the assay with SK-MEL-2 melanoma it was 27.8 µM; with SW-620 colon, 47.2 µM; with T-47D breast, 35.2 µM; in the assay on U251 CNS, 28.3 µM; in the assay on UACC-62 melanoma it was 32.5 µM.
